ChEMBL document CHEMBL5724914, “Linking interpersonal differences in gut microbiota composition and drug biotransformation activity” (2024)

Assay: (§1) The drug is tested on Z-004 corresponding to metagenome with ENA study accession number: PRJEB37062 and ENA sample accession number: ERS12561804 for biotransformation under anaerobic condition. The drug concentrations were measured over 9 timepoints collected between 0 and 24 hours of incubation by liquid-chromatography-coupled mass spectrometry (LC–MS)
Conditions: 2 µM
Note: call rule not given here.

Row | Bacterial Biotransformation | SMILES
1 | Compound metabolized | CSc1ccc2c(c1)C(N1CCN(C)CC1)Cc1ccccc1S2.O=C(O)/C=C\C(=O)O (centres undefined)
2 | Compound NOT metabolized | CCc1oc2ccccc2c1C(=O)c1cc(Br)c(O)c(Br)c1 [BENZBROMARONE]

Assay: (§2) The drug is tested on WLS-350 corresponding to human gut metagenome with ENA study accession number: PRJEB37062 and ENA sample accession number: ERS12561789 for biotransformation under anaerobic condition. The drug concentrations were measured over 9 timepoints collected between 0 and 24 hours of incubation by liquid-chromatography-coupled mass spectrometry (LC–MS)
Conditions: 2 µM

Row | Bacterial Biotransformation | SMILES
3 | Compound NOT metabolized | CSc1ccc2c(c1)C(N1CCN(C)CC1)Cc1ccccc1S2.O=C(O)/C=C\C(=O)O (centres undefined)
4 | Compound NOT metabolized | CCc1oc2ccccc2c1C(=O)c1cc(Br)c(O)c(Br)c1 [BENZBROMARONE]

Assay: as §1, with “Z-023” for “Z-004”, “ERS12561822” for “ERS12561804”
Conditions: 2 µM

Row | Bacterial Biotransformation | SMILES
5 | Compound NOT metabolized | CSc1ccc2c(c1)C(N1CCN(C)CC1)Cc1ccccc1S2.O=C(O)/C=C\C(=O)O (centres undefined)
6 | Compound NOT metabolized | CCc1oc2ccccc2c1C(=O)c1cc(Br)c(O)c(Br)c1 [BENZBROMARONE]

Assay: as §2, with “Z-007” for “WLS-350”, “rat” for “human”, “ERS12561807” for “ERS12561789”
Conditions: 2 µM

Row | Bacterial Biotransformation | SMILES
7 | Compound metabolized | CSc1ccc2c(c1)C(N1CCN(C)CC1)Cc1ccccc1S2.O=C(O)/C=C\C(=O)O (centres undefined)
8 | Compound NOT metabolized | CCc1oc2ccccc2c1C(=O)c1cc(Br)c(O)c(Br)c1 [BENZBROMARONE]

Conditions: human gut metagenome, 24 h, 2 µM

Row | Bacterial Biotransformation | SMILES
9 | Compound NOT metabolized | CSc1ccc2c(c1)C(N1CCN(C)CC1)Cc1ccccc1S2.O=C(O)/C=C\C(=O)O (centres undefined)
10 | Compound NOT metabolized | CCc1oc2ccccc2c1C(=O)c1cc(Br)c(O)c(Br)c1 [BENZBROMARONE]

Conditions: human gut metagenome, 24 h, 2 µM
Remark: another data set of the same source

Row | Bacterial Biotransformation | SMILES
11 | Compound NOT metabolized | CSc1ccc2c(c1)C(N1CCN(C)CC1)Cc1ccccc1S2.O=C(O)/C=C\C(=O)O (centres undefined)
12 | Compound metabolized | CCc1oc2ccccc2c1C(=O)c1cc(Br)c(O)c(Br)c1 [BENZBROMARONE]

Conditions: human gut metagenome, 24 h, 2 µM
Remark: another data set of the same source

Row | Bacterial Biotransformation | SMILES
13 | Compound metabolized | CCc1oc2ccccc2c1C(=O)c1cc(Br)c(O)c(Br)c1 [BENZBROMARONE]

Assay: as §2, with “Z-013” for “WLS-350”, “rabbit” for “human”, “ERS12561813” for “ERS12561789”
Conditions: 2 µM

Row | Bacterial Biotransformation | SMILES
14 | Compound metabolized | CSc1ccc2c(c1)C(N1CCN(C)CC1)Cc1ccccc1S2.O=C(O)/C=C\C(=O)O (centres undefined)
15 | Compound NOT metabolized | CCc1oc2ccccc2c1C(=O)c1cc(Br)c(O)c(Br)c1 [BENZBROMARONE]

Assay: as §2, with “WLS-052” for “WLS-350”, “ERS12561747” for “ERS12561789”
Conditions: 2 µM

Row | Bacterial Biotransformation | SMILES
16 | Compound metabolized | CSc1ccc2c(c1)C(N1CCN(C)CC1)Cc1ccccc1S2.O=C(O)/C=C\C(=O)O (centres undefined)
17 | Compound metabolized | CCc1oc2ccccc2c1C(=O)c1cc(Br)c(O)c(Br)c1 [BENZBROMARONE]

Assay: as §2, with “Z-022” for “WLS-350”, “mouse” for “human”, “ERS12561821” for “ERS12561789”
Conditions: 2 µM

Row | Bacterial Biotransformation | SMILES
18 | Compound metabolized | CSc1ccc2c(c1)C(N1CCN(C)CC1)Cc1ccccc1S2.O=C(O)/C=C\C(=O)O (centres undefined)
19 | Compound NOT metabolized | CCc1oc2ccccc2c1C(=O)c1cc(Br)c(O)c(Br)c1 [BENZBROMARONE]

Conditions: human gut metagenome, 24 h, 2 µM
Remark: another data set of the same source

Row | Bacterial Biotransformation | SMILES
20 | Compound NOT metabolized | CSc1ccc2c(c1)C(N1CCN(C)CC1)Cc1ccccc1S2.O=C(O)/C=C\C(=O)O (centres undefined)
21 | Compound metabolized | CCc1oc2ccccc2c1C(=O)c1cc(Br)c(O)c(Br)c1 [BENZBROMARONE]

Assay: as §2, with “WLS-010” for “WLS-350”, “ERS12561743” for “ERS12561789”
Conditions: 2 µM

Row | Bacterial Biotransformation | SMILES
22 | Compound metabolized | CSc1ccc2c(c1)C(N1CCN(C)CC1)Cc1ccccc1S2.O=C(O)/C=C\C(=O)O (centres undefined)
23 | Compound metabolized | CCc1oc2ccccc2c1C(=O)c1cc(Br)c(O)c(Br)c1 [BENZBROMARONE]

Conditions: human gut metagenome, 24 h, 2 µM
Remark: another data set of the same source

Row | Bacterial Biotransformation | SMILES
24 | Compound NOT metabolized | CSc1ccc2c(c1)C(N1CCN(C)CC1)Cc1ccccc1S2.O=C(O)/C=C\C(=O)O (centres undefined)
25 | Compound metabolized | CCc1oc2ccccc2c1C(=O)c1cc(Br)c(O)c(Br)c1 [BENZBROMARONE]

Conditions: human gut metagenome, 24 h, 2 µM
Remark: another data set of the same source

Row | Bacterial Biotransformation | SMILES
26 | Compound NOT metabolized | CSc1ccc2c(c1)C(N1CCN(C)CC1)Cc1ccccc1S2.O=C(O)/C=C\C(=O)O (centres undefined)
27 | Compound NOT metabolized | CCc1oc2ccccc2c1C(=O)c1cc(Br)c(O)c(Br)c1 [BENZBROMARONE]

Assay: as §2, with “Z-006” for “WLS-350”, “mouse” for “human”, “ERS12561806” for “ERS12561789”
Conditions: 2 µM

Row | Bacterial Biotransformation | SMILES
28 | Compound metabolized | CSc1ccc2c(c1)C(N1CCN(C)CC1)Cc1ccccc1S2.O=C(O)/C=C\C(=O)O (centres undefined)
29 | Compound NOT metabolized | CCc1oc2ccccc2c1C(=O)c1cc(Br)c(O)c(Br)c1 [BENZBROMARONE]

Assay: as §2, with “Z-009” for “WLS-350”, “pig” for “human”, “ERS12561809” for “ERS12561789”
Conditions: 2 µM

Row | Bacterial Biotransformation | SMILES
30 | Compound metabolized | CSc1ccc2c(c1)C(N1CCN(C)CC1)Cc1ccccc1S2.O=C(O)/C=C\C(=O)O (centres undefined)
31 | Compound NOT metabolized | CCc1oc2ccccc2c1C(=O)c1cc(Br)c(O)c(Br)c1 [BENZBROMARONE]

Assay: as §2, with “Z-025” for “WLS-350”, “rabbit” for “human”, “ERS12561824” for “ERS12561789”
Conditions: 2 µM

Row | Bacterial Biotransformation | SMILES
32 | Compound NOT metabolized | CCc1oc2ccccc2c1C(=O)c1cc(Br)c(O)c(Br)c1 [BENZBROMARONE]

Conditions: human gut metagenome, 24 h, 2 µM
Remark: another data set of the same source

Row | Bacterial Biotransformation | SMILES
33 | Compound NOT metabolized | CSc1ccc2c(c1)C(N1CCN(C)CC1)Cc1ccccc1S2.O=C(O)/C=C\C(=O)O (centres undefined)
34 | Compound NOT metabolized | CCc1oc2ccccc2c1C(=O)c1cc(Br)c(O)c(Br)c1 [BENZBROMARONE]
